Source: patent publication US20210022342A1, “THE USE OF SAFENERS TO IMPROVE RESISTANCE OF RICE CROP TO HERBICIDES” (Adama Agan Ltd., priority 2018, published 2021)

What was measured:
Type in all cases: in vivo
mutant rice = assay: Regrowth of mutant rice under low and high light intensity
Excerpt: (§1) Four days after treatment, the tops of the plants were cut off so that approximately 2.5 cm of plant from the top of the soil remain. The plants were allowed to regrow for 3 days at which time the amount of regrowth was weighed by measuring the amount of fresh weight of tissue that regrew. Comparing the weight of regrowth of shoots after cutting indicates the level of phytotoxicity the herbicide had on the mutant rice plant and the increased level of resistance of the mutant rice to the herbicide when the herbicide was applied in combination with the safener.

[1] = tested on: ACCase inhibitor resistant rice seeds (ML0831265-01493 (ATCC deposit PTA-12933, mutation G2096S)); assay: Safener seed treatment with propaquizafop or quizalofop: regrowth of resistant rice
Method: (§2) Seeds of a proprietary ACCase resistant rice variety, i.e. RTA1, was used. RTA1, ML0831265-01493 (ATCC deposit PTA-12933, mutation G2096S) variety rice seeds were supplied by RiceTec. RTA1 rice cultivar contains a single mutation in the ACCase gene that confer ACCase resistance. The mutation makes the enzyme insensitive to quizalofop.
(§3) Mutant rice seeds were planted in commercial greenhouse soil mix in 10×10×10 cm plastic pots. 250 mL of soil was put into each pot, then the seeds were placed on top of the soil and the seeds were covered with 100-150 mL of soil. Approximately 8-10 seeds were planted per pot. The pots were then watered with 100 mL of a mixture of Miracle Grow and Fertiplus (iron supplement). The pots were placed in the greenhouse (38° C./20° C. day/night, 14 h photoperiod with supplemental light). The average light intensity in the greenhouse was 150 μM/m^2/sec.
Plants were grown until 10 days after planting and then the pots were transferred to trays and the plants were grown under water. :Plants were treated when they reached the 3-5 leaf stage. […]
as §1
The safeners were also applied in various w/w ratios of the ACCase inhibiting herbicides to the rice seeds.

[2] = tested on: HPPD resistant rice variety; assay: HPPD herbicides with isoxadifen, regrowth of HPPD resistant mutant rice
Method: The rice cultivar contains mutation(s) in the HPPD gene which makes the enzyme insensitive to mesotrione and/or tembotrione and/or isoxaflutole.
Seed of HPPD resistant rice variety is planted in a commercial greenhouse soil mix in 10×10×10 cm plastic pots. 250 mL of soil is put into each pot, then the seed is placed on top of the soil and the seed is covered with 100-150 mL of soil. Approximately 8-10 seeds are planted per pot. The pots are then watered with 100 mL of a mixture of Miracle Grow and Fertiplus (iron supplement). The pots are placed in the greenhouse (38° C./20° C. day/night, 14 h photoperiod with supplemental light). The average light intensity in the greenhouse was 150 μM/m^2/sec.
Plants are grown until 10 days after planting and then the pots are transferred to trays and plants are grown under water. Plants are treated when they reach the 3-5 leaf stage.
Generally, plants are treated with 50-250 g/ha of mesotrione or tembotrione or isoxaflutole through a moving nozzle spray system in a spray volume of 200 l/ha or 187 l/ha. Isoxadifen is tank mixed with the herbicide in the spray bottle. The weight ratio of the safener to the herbicide in the tank mix is from 1:1 to 1:5.
Four days after reatment, the tops of the plants are cut off to approximately 3 cm from the top of the soil. The plants are allowed to regrow for 7 days at which time the amount of regrowth is measured by cutting any growth above 3 cm above the top of soil and weighing the tissue that regrew.
Efficacy test is conducted to determine the effect of mesotrione on mutant rice in the presence of isoxadifen.
The weight the regrown shoot on mutant rice applied with mesotrione is compared with the weight of regrown shoot on mutant rice applied with mesotrione and isoxadifen at various rates.

[3] = tested on: mutant rice (ML0831265-01493, ATCC deposit PTA-12933, mutation G2096S); assay: Tank mixes of safeners with propaquizafop or quizalofop: regrowth of mutant rice
Method: as §2, §3
Plants were grown until 10 days after planting and then the pots were transferred to trays and the plants were grown under water. :Plants were treated when they reached the 3-5 leaf stage.
Safeners were tank mixed with the herbicide in the spray bottle.
as §1
The safeners were applied in various w/w ratios with the ACCase inhibiting herbicides to the rice plant.

weedy rice = assay: Regrowth of weedy rice after quizalofop ethyl; details: at the rates tested
Excerpt: The amount of plant regrowth observed for the ACCase resistant rice is compared to the amount of regrowth observed for the weedy rice. The weedy rice was killed by quizalofop ethyl at the rates tested, so there was no regrowth.

[4] = tested on: herbicide resistant rice crop (G2096S substitution, ML0831265-01493); assay: Quizalofop dose response with or without isoxadifen, regrowth, herbicide resistant rice
Method: Four days after treatment, the tops of the plants were cut off so that approximately 2.5 cm of plant from the top of the soil remain. The plants were allowed to regrow for 3 days at which time the amount of regrowth was weighed by measuring the amount of fresh weight of tissue that regrew.
The improvement in regrowth was calculated by subtracting the regrowth from a) wild type rice and wild type rice with isoxadifen; b) herbicide resistant rice; and c) herbicide resistant rice and isoxadifen.
Calculations were done for each application rate of quizalofop. The efficacy of safener alone and mutation alone on decreasing herbicide effect/increasing herbicide resistance were calculated. The relative fresh weight re-growth is the percentage of activity (for Colby).
The re-growth data was implemented in curve and the synergistic effect was calculated.
in which E represents the percentage of regrowth expected for the application of safener on mutant rice crop at the defined doses of herbicide. X is the percentage of regrowth for the application of safener on wildtype rice crop at the defined doses of herbicide. Y is the percentage of regrowth for mutant rice crop at the defined doses of herbicide without safener application. When the percentage of regrowth observed for the application of safener on mutant rice crop at the defined doses of herbicide is greater than expected as calculated using the Colby equation, there is a synergistic effect.

[5] = tested on: wild type rice (Non-Traited Rice); assay: Quizalofop dose response with or without isoxadifen, regrowth, wild type rice; details: calculated effect of safener alone, quizalofop 5.2 g/ha
[6] = isoxaflutole with isoxadifen vs same mutant rice not treated with isoxadifen
[7] = mesotrione with isoxadifen vs same mutant rice not treated with isoxadifen
[8] = tembotrione with isoxadifen vs same mutant rice not treated with isoxadifen

O=C(O)C1=NOC(c2ccccc2)(c2ccccc2)C1 [Isoxadifen, isoxadifen]
regrowth of the mutant rice (mutant rice; high light intensity, quizalofop with isoxadifen, any of the rates tested): regrowth was not significant affected
Regrowth (mg FW) (mutant rice; high light intensity, with safener, herbicide 0 g/ha): 540 mg FW
reduction in growth of the mutant rice (mutant rice; low light intensity, 40 g/ha quizalofop with 100 g/ha isoxadifen): less than 20%
Regrowth (mg FW) (mutant rice; low light intensity, with safener, herbicide 0 g/ha): 183 mg FW
Regrowth (fresh weight mg) ([1]; propaquizafop, safener seed treatment 0.5 g/kg of seed): 133 mg
Regrowth (fresh weight mg) ([1]; propaquizafop, safener seed treatment 1 g/kg of seed): 170 mg
Regrowth (fresh weight mg) ([1]; propaquizafop, safener seed treatment 2 g/kg of seed): 298 mg
Regrowth (fresh weight mg) ([1]; quizalofop, safener seed treatment 0.5 g/kg of seed): 165 mg
Regrowth (fresh weight mg) ([1]; quizalofop, safener seed treatment 1 g/kg of seed): 103 mg
Regrowth (fresh weight mg) ([1]; quizalofop, safener seed treatment 2 g/kg of seed): 80 mg
level of resistance of the mutant rice to isoxaflutole [2, 6]: significantly increases the level of resistance
phytotoxicity of isoxaflutole on the mutant rice [2, 6]: significantly reduces the phytotoxicity
level of resistance of the mutant rice to mesotrione [2, 7]: significantly increases the level of resistance
phytotoxicity of mesotrione on the mutant rice [2, 7]: significantly reduces the phytotoxicity
level of resistance of the mutant rice to tembotrione [2, 8]: significantly increases the level of resistance
phytotoxicity of tembotrione on the mutant rice [2, 8]: significantly reduces the phytotoxicity
Regrowth (fresh weight mg) ([3]; tank mix with propaquizafop 50 g/ha, safener 12.5 g/ha): 38 mg
Regrowth (fresh weight mg) ([3]; tank mix with propaquizafop 50 g/ha, safener 25 g/ha): 258 mg
Regrowth (fresh weight mg) ([3]; tank mix with propaquizafop 50 g/ha, safener 50 g/ha): 310 mg
Regrowth (fresh weight mg) ([3]; tank mix with propaquizafop 50 g/ha, safener 100 g/ha): 488 mg
Regrowth (fresh weight mg) ([3]; tank mix with quizalofop 40 g/ha, safener 12.5 g/ha): 87 mg
Regrowth (fresh weight mg) ([3]; tank mix with quizalofop 40 g/ha, safener 25 g/ha): 285 mg
Regrowth (fresh weight mg) ([3]; tank mix with quizalofop 40 g/ha, safener 50 g/ha): 335 mg
Regrowth (fresh weight mg) ([3]; tank mix with quizalofop 40 g/ha, safener 100 g/ha): 462 mg

CCOC(=O)[C@@H](C)Oc1ccc(Oc2cnc3cc(Cl)ccc3n2)cc1 [Quizalofop, quizalofop P-ethyl]
Effect on weedy rice (regrowth) (weedy rice): killed
inhibition of growth of the mutant rice (mutant rice; high light intensity (800-1000 uM/m2/sec), 40 g/ha quizalofop, no safener): no inhibition of growth
reduction in growth of the mutant rice (mutant rice; high light intensity, 70 g/ha quizalofop, no safener): over 80%
Regrowth (mg FW) (mutant rice; high light intensity, no safener, herbicide 30 g/ha): 447 mg FW
Regrowth (mg FW) (mutant rice; high light intensity, no safener, herbicide 40 g/ha): 533 mg FW
Regrowth (mg FW) (mutant rice; high light intensity, no safener, herbicide 50 g/ha): 220 mg FW
Regrowth (mg FW) (mutant rice; high light intensity, no safener, herbicide 60 g/ha): 107 mg FW
Regrowth (mg FW) (mutant rice; high light intensity, no safener, herbicide 70 g/ha): 76.7 mg FW
Regrowth (mg FW) (mutant rice; high light intensity, with safener (isoxadifen), herbicide 30 g/ha): 630 mg FW
Regrowth (mg FW) (mutant rice; high light intensity, with safener (isoxadifen), herbicide 40 g/ha): 533 mg FW
Regrowth (mg FW) (mutant rice; high light intensity, with safener (isoxadifen), herbicide 50 g/ha): 603 mg FW
Regrowth (mg FW) (mutant rice; high light intensity, with safener (isoxadifen), herbicide 60 g/ha): 427 mg FW
Regrowth (mg FW) (mutant rice; high light intensity, with safener (isoxadifen), herbicide 70 g/ha): 540 mg FW
reduction in growth of the mutant rice (mutant rice; low light intensity (150 uM/m2/sec), 40 g/ha quizalofop, no safener): 80%
Regrowth (mg FW) (mutant rice; low light intensity, no safener, herbicide 30 g/ha): 30 mg FW
Regrowth (mg FW) (mutant rice; low light intensity, no safener, herbicide 40 g/ha): 0 mg FW
Regrowth (mg FW) (mutant rice; low light intensity, no safener, herbicide 50 g/ha): 0 mg FW
Regrowth (mg FW) (mutant rice; low light intensity, no safener, herbicide 60 g/ha): 0 mg FW
Regrowth (mg FW) (mutant rice; low light intensity, no safener, herbicide 70 g/ha): 0 mg FW
Regrowth (mg FW) (mutant rice; low light intensity, with safener (isoxadifen), herbicide 30 g/ha): 117 mg FW
Regrowth (mg FW) (mutant rice; low light intensity, with safener (isoxadifen), herbicide 40 g/ha): 100 mg FW
Regrowth (mg FW) (mutant rice; low light intensity, with safener (isoxadifen), herbicide 50 g/ha): 150 mg FW
Regrowth (mg FW) (mutant rice; low light intensity, with safener (isoxadifen), herbicide 60 g/ha): 50 mg FW
Regrowth (mg FW) (mutant rice; low light intensity, with safener (isoxadifen), herbicide 70 g/ha): 30 mg FW
Regrowth (fresh weight mg) ([1]; quizalofop, seeds without safener): 107 mg
Calculated efficacy base on Colby (%) ([4]; expected for mutant & safener, quizalofop 5.2 g/ha): 63%
additive effect of safener and mutation, increase in ED50 ([4]; expected, compared to wildtype rice without safener): 5.1 fold
observed increase in ED50 ([4]; herbicide resistant rice with safener compared to wildtype rice without safener): 31.4 fold
Observed efficacy (%) ([4]; mutant & safener, quizalofop 5.2 g/ha): 92%
Efficacy at ED50 of mutant- 5.2 g/ha (%) ([4]; mutant alone, quizalofop 5.2 g/ha): 50%
increase in tolerance to herbicide (ED50) by the mutation ([4]; mutant rice vs wildtype rice, no safener): 2.4 fold
Regrowth (fresh weight mg) ([3]; quizalofop 40 g/ha, no safener): 70 mg
Efficacy at ED50 of mutant- 5.2 g/ha (%) [5]: 26%
